From patent publication US10905761B2, “Use of a lipopeptide or lipoprotein as an adjuvant in therapeutic or prophylactic vaccinations” (HELMHOLTZ-ZENTRUM FUER INFEKTIONSFORSCHUNG GMBH, priority 2002, dated 2021)
Entries after “also recorded” stand apart in the source; their conditions may differ. No end group written: not given here.

Key:
BALB/c (H-2d) mice [1] = test: Humoral responses after immunization by various routes with MALP-2 as adjuvant (serum β-galactosidase-specific antibody ELISA, Example 2); type: in vivo; settings: day 28
Description: Mice were immunized by subcutaneous (s.c.), intraperitoneal (i.p.), intradermal (i.d.) and intranasal (i.n.) routes with either pure β-galactosidase (40 μg) or β-galactosidase mixed with MALP-2 (0.5 μg) on days 0, 7 and 14. On day 28 after the primary immunization, serum samples were removed and the titer of β-galactosidase-specific antibodies was determined by means of an ELISA. The results are shown as reciprocal log2 of the geometric mean of the endpoint titer. As a control, we included a group in which the animals were immunized by the route with β-galactosidase using aluminum hydroxide as adjuvant.
Mice were immunized by the intraperitoneal (i.p.) and intranasal (i.n.) route with either pure β-galactosidase (40 μg/dose) or β-galactosidase mixed with MALP-2 (1 μg/dose) on days 0, 7 and 14. On day 28 after the primary immunization, serum samples were taken and the titer of β-galactosidase-specific antibodies was determined by means of an ELISA. The results are shown as absorbances (OD […]).
Six- to eight-week old female BALB/c (H-2d) mice were purchased from Harlan Winkelmann GmbH (Borchen, Germany) and treated in accordance with local and EU directives. Groups each of 5 mice were immunized on day 1, 7 and 14 either with 40 μg of pure β-galactosidase (Boehringer, Mannheim, Germany), or with admixture of 1 or 0.5 μg of synthetic MALP-2. For the intranasal administration (i.n.), 10 μl was administered into each nostril, whereas for i.p., s.c. and i.d. injection β-galactosidase was resuspended with or without MALP-2 in respectively 400, 100 and 100 μl of PBS. 28 days after the first immunization, serum samples were taken and stored at −20° C. until the β-gal-specific antibodies were determined. Nunc-Immuno MaxiSorp assay plates with 96 wells (Nunc, Roskilde, Denmark) were coated with 100 μl of β-galactosidase (Boehringer, Mannheim, Germany) with 5 μg/ml in 0.05 M carbonate buffer (pH 8.2) per well. Serum dilutions with 1% BSA and 0.05% Tween-20 in PBS were added ([…]), and the plates were incubated at 37° C. for 24 hours. […]

BALB/c (H-2d) mice [2] = test: Cellular responses (spleen cell proliferation) after immunization with different MALP-2 doses (Example 3); type: in vivo; settings: 1 μg MALP-2; spleen cells restimulated with β-galactosidase; day 28
Description: β-Galactosidase-specific T-cell proliferation responses of mouse spleen cells immunized by the i.p. or i.n. routes with either pure β-galactosidase (40 μg/dose) or β-galactosidase mixed with MAPL-2 (1 or 0.5 μg/dose) on days 0, 7 and 14. On day 28 after the primary immunization, the animals were sacrificed and the spleen cells were restimulated in vitro in the presence of 20 μg/ml soluble β-galactosidase for four days. The results are shown as stimulation indices (cpm of samples/cpm in unstimulated control cells).
Six- to eight-week old female BALB/c (H-2d) mice were purchased from Harlan Winkelmann GmbH (Borchen, Germany) and treated in accordance with local and EU directives. Groups each of 5 mice were immunized on day 1, 7 and 14 either with 40 μg of pure β-galactosidase (Boehringer, Mannheim, Germany), or with admixture of 1 or 0.5 μg of synthetic MALP-2. For the intranasal administration (i.n.), 10 μl was administered into each nostril, while for the i.p. injection β-galactosidase was resuspended with or without MALP-2 in 400 μl of PBS. […] The cells were then harvested on filter paper (Filtermat A; Wallac, Freiburg, Germany) with a cell harvester (Inotech, Wohlen, Switzerland), and the amount of [H]thymidine incorporated into the DNA of the proliferated cells was determined with the aid of a […] scintillation counter (Wallac 1450, Micro-Trilux). […]

BALB/c (H-2d) mice [3] = test: β-Galactosidase-specific T-cell proliferation of spleen and regional lymph node cells of immunized mice (Example 7); type: in vivo
Description: The cells were restimulated in vitro with various concentrations of soluble β-galactosidase for four days. The results are shown as average cpm subtracted from the background values for unstimulated cells from groups of three. The SEM is depicted by vertical lines.
Lymph nodes located below the lower jaw and the spleens were removed and put together for the analysis of the cellular immune responses. The cells were grown in RPMI 1640 supplemented by 10% fetal calf serum, 10 U/ml penicillin, 50 μg/ml streptomycin, 5×10^−5 M 2-mercaptoethanol and 1 mM L-glutamine (GIBCO BRL, Karlsruhe, Germany) and stored at 37° C. in a moist atmosphere with 5% CO2. The suspensions of lymph node and spleen cells were adjusted to 5×10^6 cells/ml in complete medium and put in a flat-bottomed 96-well microtiter plate (Nunc) with 100 μl/well, and the plates were incubated in the presence of various concentrations of soluble β-galactosidase for 4 days. Each concentration was tested in groups of three. During the last 18 hours of the incubation, 1 ρCi of [^3H]thymidine (Amersham International, Freiburg, Germany) was added to each well. The cells were then harvested on filter paper (Filtermat A; Wallac, Freiburg, Germany) using a cell harvester (Inotech, Wohlen, Switzerland), and the amount of incorporated [^3H]thymidine in the DNA of the proliferated cells was determined with the aid of a […] (Wallac 1450, Micro-Trilux). The results have been shown as the arithmetic mean of the uptake of [^3H]thymidine in cpm.

immunized animals = test: Tolerability and anti-adjuvant antibodies in immunized animals; settings: after intranasal administration of MALP-2 as adjuvant

Substance: S-[2,3-bispalmitoyloxypropyl]cysteinyl-GNNDESNISFKEK ({S‑(2,3-bispalmitoyloxypropyl)Cys}-GNNDESNISFKEK) [MALP-2]
- antibody responses compared with aluminum hydroxide as standard adjuvant for s.c. injection (BALB/c (H-2d) mice [1]; 0.5 μg MALP-2, s.c., i.p., i.d., i.n.): at least as strong as (i.d.) or stronger
- adjuvant effect on β-galactosidase-specific serum antibodies (BALB/c (H-2d) mice [1]; 0.5 μg MALP-2 mixed with 40 μg β-galactosidase, s.c., i.p., i.d., i.n.): significant increase; also recorded: strong adjuvant effect
- adjuvant effect on β-galactosidase-specific serum antibodies at higher dose (BALB/c (H-2d) mice [1]; 1 μg MALP-2, i.p. and i.n.): abolition of the adjuvant effect
- cell-mediated immunization (spleen cell proliferation) at higher dose (BALB/c (H-2d) mice [2]): cell-mediated immunization is reduced
- T-cell proliferation / cellular response compared with CTB as adjuvant (BALB/c (H-2d) mice [3]; 0.5 μg MALP-2 versus 10 μg CTB, i.n., p<0.05): statistically significant (p<0.05) increase in T-cell proliferation; also recorded: distinctly higher proliferation
- proliferation of lymph node and spleen cells after in vitro restimulation with β-galactosidase (BALB/c (H-2d) mice [3]; i.n. immunization, day 31): efficient proliferation response
- proliferation of spleen cells after in vitro restimulation with β-galactosidase (BALB/c (H-2d) mice [3]; i.p. immunization, day 31): further increase in proliferation
- anti-MALP-2 antibodies (immunized animals): No anti-MALP-2 antibodies were detectable
